Data: patent US20100041089A1, “IMPROVED METHOD FOR DETECTING CHEMICAL […]” (priority 2006, published 2010)

Tested on: yeast genes (expressed mRNA)
Assay: DNA chip measurement of expressed mRNA of yeast genes after culture with a toxic chemical substance
Type: cell-based, Saccharomyces cerevisiae S288C
Protocol: Yeast (Saccharomyces cerevisiae S288C (a SUC2mal mel gap2 CUP1)) were cultured at 25° C. on YPD medium (yeast extract 1%, polypeptone 2%, glucose 2%). One of toxic chemical substances was added to the cell at logarithmic growth phase, and the cell was further cultured for two hours. Cell was cultured without any chemical substance in the same condition, and was used as a control. Concentrations of the chemical substances were defined to inhibit the growth of the yeast but not lead to death.
After the completion of cultivation, the culture was centrifuged to collect the cells. To the cells, sodium acetate buffer (50 mM sodium acetate, 10 mM EDTA, 1% SDS) was added, and the mixture was shaken at 65° C. for five minutes, followed by returning to room temperature, and obtaining the supernatant, which procedure was repeated two times. To the supernatant, ½ amount of a solution of phenol/chloroform (1:1) was added, and the mixture was centrifuged to give a supernatant, an equal amount of chloroform was added, and the mixture was centrifuged to give a supernatant. To the supernatant, an equal amount of isopropanol containing 0.3 M sodium acetate was added, and the mixture was allowed to stand at room temperature for 30 minutes, after which the mixture was centrifuged to give sediment of the whole RNAs. Seventy % ethanol was added to the sediment, and the mixture was again centrifuged to give sediment, which was then dried and dissolved in water. mRNA was isolated from the whole RNAs as followings. In view of the fact that a poly A chain is attached to the 3′ terminus of mRNA, a polynucleotide having a poly T structure which was immobilized on the surface of latex beads was used to trap the mRNA, and then the mRNA was washed and eluted with spine column (Oligotex-dT30<Super>mRNA Purification Kit, Takara). Reverse transcription of the mRNA was conducted with a reverse transcriptase (Super Script II Reverse Transcriptase; catalogue No. 18064-014, GibcoBRL) using fluorescence-labeled nucleotides to give cDNAs that were introduced with Cy3-dUTP or Cy5-dUTP during the reverse transcription.
The labeled cDNAs were dissolved in TE buffer (10 mM Tris-HCl/1 mM EDTA, pH 8.0), and the solution was dropped on the DNA chip containing the whole genes of yeast (DNA Chip Research Inc. Japan) so that the cDNAs were hybridized on the DNA chip at 65° C. for over 12 hours. The fluoresces intensity of the DNA chip was read with a scanner, and the ratio relative to the fluorescence intensity resulting from the absence of chemical substance was estimated as the following, which is shown in Tables 1 to 9.
In the Tables, “Intensity” indicated in the rightmost column is a value of the level of expressed mRNA of each gene in control cells as divided by the average level of the expressions of the whole genes. A gene of which mRNA level is lower in control, and is higher in cases of addition of chemical substance, is especially useful in the detection of toxic substances.
Here, when a ratio of an amount of mRNA expressed in the presence of the chemical substance to an amount of mRNA expressed in the absence of the chemical substance is two or more, then it is considered significant.

In the case of `CN(C)C(=S)SSC(=S)N(C)C` [(10), Tetramethylthiuram disulfide], the “The level of expressed mRNA in the presence of chemical substance/The level of expressed mRNA in the absence of chemical substance” value (yeast gene YFL010C, cultured two hours with substance) is reported as 1.4, the “The level of expressed mRNA in the presence of chemical substance/The level of expressed mRNA in the absence of chemical substance” value (yeast gene YFL024C, cultured two hours with substance) is reported as 0.5 and the “The level of expressed mRNA in the presence of chemical substance/The level of expressed mRNA in the absence of chemical substance” value (yeast gene YFL032W, cultured two hours with substance) is reported as 0.6. For the same compound, the “The level of expressed mRNA in the presence of chemical substance/The level of expressed mRNA in the absence of chemical substance” value (yeast gene YFL056C) was 31.3, the “The level of expressed mRNA in the presence of chemical substance/The level of expressed mRNA in the absence of chemical substance” value (yeast gene YFL056C, cultured for two hours with substance) was 31.3 and the “The level of expressed mRNA in the presence of chemical substance/The level of expressed mRNA in the absence of chemical substance” value (yeast gene YFL057C) was 46.1. The “The level of expressed mRNA in the presence of chemical substance/The level of expressed mRNA in the absence of chemical substance” value (yeast gene YFL057C, cultured for two hours with substance) was 46.1, the “The level of expressed mRNA in the presence of chemical substance/The level of expressed mRNA in the absence of chemical substance” value (yeast gene YGL037C, cultured two hours with substance) was 1.6 and the “The level of expressed mRNA in the presence of chemical substance/The level of expressed mRNA in the absence of chemical substance” value (yeast gene YGL046W, cultured two hours with substance) was 4.5. For the same compound, the “The level of expressed mRNA in the presence of chemical substance/The level of expressed mRNA in the absence of chemical substance” value (yeast gene YGL047W, cultured two hours with substance) was 5.7, the “The level of expressed mRNA in the presence of chemical substance/The level of expressed mRNA in the absence of chemical substance” value (yeast gene YGL053W, cultured two hours with substance) was 2.4 and the “The level of expressed mRNA in the presence of chemical substance/The level of expressed mRNA in the absence of chemical substance” value (yeast gene YGL121C, cultured two hours with substance) was 15.0. For the same compound, the “The level of expressed mRNA in the presence of chemical substance/The level of expressed mRNA in the absence of chemical substance” value (yeast gene YGL136C, cultured two hours with substance) was 1.0, the “The level of expressed mRNA in the presence of chemical substance/The level of expressed mRNA in the absence of chemical substance” value (yeast gene YGL184C) was 66.8 and the “The level of expressed mRNA in the presence of chemical substance/The level of expressed mRNA in the absence of chemical substance” value (yeast gene YGL193C, cultured two hours with substance) was 1.0. For the same compound, the “The level of expressed mRNA in the presence of chemical substance/The level of expressed mRNA in the absence of chemical substance” value (yeast gene YGL199C, cultured two hours with substance) was 0.1, the “The level of expressed mRNA in the presence of chemical substance/The level of expressed mRNA in the absence of chemical substance” value (yeast gene YGR101W, cultured two hours with substance) was 1.4 and the “The level of expressed mRNA in the presence of chemical substance/The level of expressed mRNA in the absence of chemical substance” value (yeast gene YGR110W, cultured two hours with substance) was 4.8. The “The level of expressed mRNA in the presence of chemical substance/The level of expressed mRNA in the absence of chemical substance” value (yeast gene YGR130C, cultured two hours with substance) was 1.5, the “The level of expressed mRNA in the presence of chemical substance/The level of expressed mRNA in the absence of chemical substance” value (yeast gene YGR142W, cultured two hours with substance) was 12.2 and the “The level of expressed mRNA in the presence of chemical substance/The level of expressed mRNA in the absence of chemical substance” value (yeast gene YGR154C, cultured two hours with substance) was 9.1. For the same compound, the “The level of expressed mRNA in the presence of chemical substance/The level of expressed mRNA in the absence of chemical substance” value (yeast gene YGR213C) was 6.9, the “The level of expressed mRNA in the presence of chemical substance/The level of expressed mRNA in the absence of chemical substance” value (yeast gene YGR221C, cultured two hours with substance) was 0.7 and the “The level of expressed mRNA in the presence of chemical substance/The level of expressed mRNA in the absence of chemical substance” value (yeast gene YHL040C (detoxification protein gene)) was 11.3. For the same compound, the “The level of expressed mRNA in the presence of chemical substance/The level of expressed mRNA in the absence of chemical substance” value (yeast gene YHL040C (transport facilitation protein gene)) was 11.3, the “The level of expressed mRNA in the presence of chemical substance/The level of expressed mRNA in the absence of chemical substance” value (yeast gene YHL047C (detoxification protein gene)) was 11.9 and the “The level of expressed mRNA in the presence of chemical substance/The level of expressed mRNA in the absence of chemical substance” value (yeast gene YHL047C (transport facilitation protein gene)) was 11.9. For the same compound, the “The level of expressed mRNA in the presence of chemical substance/The level of expressed mRNA in the absence of chemical substance” value (yeast gene YHR029C, cultured two hours with substance) was 8.6, the “The level of expressed mRNA in the presence of chemical substance/The level of expressed mRNA in the absence of chemical substance” value (yeast gene YHR071W) was 7.2 and the “The level of expressed mRNA in the presence of chemical substance/The level of expressed mRNA in the absence of chemical substance” value (yeast gene YHR116W, cultured two hours with substance) was 2.7. For the same compound, the “The level of expressed mRNA in the presence of chemical substance/The level of expressed mRNA in the absence of chemical substance” value (yeast gene YHR138C, cultured two hours with substance) was 4.6, the “The level of expressed mRNA in the presence of chemical substance/The level of expressed mRNA in the absence of chemical substance” value (yeast gene YHR139C) was 46.6 and the “The level of expressed mRNA in the presence of chemical substance/The level of expressed mRNA in the absence of chemical substance” value (yeast gene YHR199C, cultured two hours with substance) was 6.0. For the same compound, the “The level of expressed mRNA in the presence of chemical substance/The level of expressed mRNA in the absence of chemical substance” value (yeast gene YIL023C, cultured two hours with substance) was 1.6, the “The level of expressed mRNA in the presence of chemical substance/The level of expressed mRNA in the absence of chemical substance” value (yeast gene YIL024C, cultured two hours with substance) was 1.8 and the “The level of expressed mRNA in the presence of chemical substance/The level of expressed mRNA in the absence of chemical substance” value (yeast gene YIL041W, cultured two hours with substance) was 1.4. The “The level of expressed mRNA in the presence of chemical substance/The level of expressed mRNA in the absence of chemical substance” value (yeast gene YIL087C, cultured two hours with substance) was 1.8, the “The level of expressed mRNA in the presence of chemical substance/The level of expressed mRNA in the absence of chemical substance” value (yeast gene YIL102C, cultured two hours with the chemical substance) was 0.3 and the “The level of expressed mRNA in the presence of chemical substance/The level of expressed mRNA in the absence of chemical substance” value (yeast gene YIL117C, cultured two hours with substance) was 3.5. The “The level of expressed mRNA in the presence of chemical substance/The level of expressed mRNA in the absence of chemical substance” value (yeast gene YIL167W) was 12.7, the “The level of expressed mRNA in the presence of chemical substance/The level of expressed mRNA in the absence of chemical substance” value (yeast gene YIL168W) was 19.3 and the “The level of expressed mRNA in the presence of chemical substance/The level of expressed mRNA in the absence of chemical substance” value (yeast gene YIR038C (detoxification protein gene)) was 4.5. The “The level of expressed mRNA in the presence of chemical substance/The level of expressed mRNA in the absence of chemical substance” value (yeast gene YJL020C, cultured two hours with substance) was 1.0, the “The level of expressed mRNA in the presence of chemical substance/The level of expressed mRNA in the absence of chemical substance” value (yeast gene YJL057C, cultured two hours with substance) was 6.1 and the “The level of expressed mRNA in the presence of chemical substance/The level of expressed mRNA in the absence of chemical substance” value (yeast gene YJL066C, cultured two hours with substance) was 2.1. The “The level of expressed mRNA in the presence of chemical substance/The level of expressed mRNA in the absence of chemical substance” value (yeast gene YJL082W, cultured two hours with substance) was 2.9, the “The level of expressed mRNA in the presence of chemical substance/The level of expressed mRNA in the absence of chemical substance” value (yeast gene YJL100W, cultured two hours with the chemical substance) was 2.7 and the “The level of expressed mRNA in the presence of chemical substance/The level of expressed mRNA in the absence of chemical substance” value (yeast gene YJL108C, cultured two hours with substance) was 0.7. The “The level of expressed mRNA in the presence of chemical substance/The level of expressed mRNA in the absence of chemical substance” value (yeast gene YJL149W, cultured two hours with substance) was 3.8 and the “The level of expressed mRNA in the presence of chemical substance/The level of expressed mRNA in the absence of chemical substance” value (yeast gene YJL151C, cultured two hours with substance) was 1.6.
